Structures can show the parent of a compound that is named as a salt.
Columns and labels:
[1] = test system: ^51Cr-labelled K562; assay: Natural killer (NK) activity of patient B, cytotoxic activity against 51Cr-labelled target cells; assay type: in vivo, human
Protocol: (§1) An injection containing 100 mg of a test compound was intravenously administered to two patients with CFS (A, B), continuously, for 14 days. The measurement of DHAS concentration in plasma was conducted before administration and 13 hours after administration with respect to the first and second days, while the measurement was conducted before administration with regard to the third, fifth, eighth, eleventh and fourteenth days. On the fourteenth day from the day on which first administration was conducted, the patients were questioned about lassitude, weakness and psychoneurotic symptom.
With regard to the patient B, a natural killer (NK) activity was measured after administration on the first day and before administration on the fifteenth day. The measurement of the NK activity was conducted in accordance with the method described in Later Biological Experimental Course, No. 5, Process for Study of Immunobiochemistry (Incorporation of The Japanese Biochemistry Society ed., published by Tokyo Kagaku Dojin Co.), page 186. That is, the NK activity was measured by using, as an indication, a cytotoxic activity determined by using ^51Cr-labelled K562 as a target cell. Incidentally, a ratio of effector cell to target cell (E/T ratio) was set at 10:1 or 20:1.

[2] = Measurement of DHAS concentration in plasma of patients with CFS given the injection intravenously; assay type: in vivo; conditions: human, iv, 100 mg, 100 mg intravenously daily for 14 days; for concentration at 13 h: 13 hours after administration; for concentration at 48 h / concentration at 72 h / concentration at 120 h / concentration at 192 h / concentration at 264 h / concentration at 336 h: before administration; for concentration at 72 h: 3 days; for concentration at 120 h: 5 days; for concentration at 192 h: 8 days; for concentration at 264 h: 11 days; for concentration at 336 h: 14 days
Protocol: as §1

[3] = test system: patients with CFS; assay: Questioning of patients with CFS about lassitude, weakness and psychoneurotic symptom; assay type: in vivo, human; conditions: 100 mg intravenously daily for 14 days
Protocol: as §1

SMILES: C[C@]12CC[C@H](OS(=O)(=O)O)CC1=CC[C@@H]1[C@@H]2CC[C@]2(C)C(=O)CC[C@@H]12 [Sodium salt of DHAS, dehydroepiandrosterone sulfate]
- NK activity (%) ([1]; E/T ratio 10:1, after administration on the fourteenth day (before administration on the first day: 7.2)): 12.1%
- NK activity (%) ([1]; E/T ratio 20:1, after administration on the fourteenth day (before administration on the first day: 13.7)): 18.5%
- concentration at 13 h ([2]; patient A, 1 day): 6360 ng/mL
- concentration at 13 h ([2]; patient A, 2 days): 6340 ng/mL
- concentration at 48 h ([2]; patient A, 2 days): 2460 ng/mL
- concentration at 72 h ([2]; patient A): 2460 ng/mL
- concentration at 120 h ([2]; patient A): 2160 ng/mL
- concentration at 192 h ([2]; patient A): 2140 ng/mL
- concentration at 264 h ([2]; patient A): 2110 ng/mL
- concentration at 336 h ([2]; patient A): 3000 ng/mL
- concentration at 13 h ([2]; patient B, 1 day): 8900 ng/mL
- concentration at 13 h ([2]; patient B, 2 days): 7650 ng/mL
- concentration at 48 h ([2]; patient B, 2 days): 2680 ng/mL
- concentration at 72 h ([2]; patient B): 2820 ng/mL
- concentration at 120 h ([2]; patient B): 4140 ng/mL
- concentration at 192 h ([2]; patient B): 2050 ng/mL
- concentration at 264 h ([2]; patient B): 2480 ng/mL
- concentration at 336 h ([2]; patient B): 2800 ng/mL
- Degree of improvement on the fourteenth day Lassitude ([3]; patient A): improved
- Degree of improvement on the fourteenth day Psychoneurotic symptom ([3]; patient A): Improved
- Degree of improvement on the fourteenth day Weakness ([3]; patient A): Improved
- Degree of improvement on the fourteenth day Lassitude ([3]; patient B): improved
- Degree of improvement on the fourteenth day Psychoneurotic symptom ([3]; patient B): Improved
- Degree of improvement on the fourteenth day Weakness ([3]; patient B): Improved

— patent EP0979653A1, “REMEDY FOR CHRONIC FATIGUE SYNDROME” (KANEBO, LTD., priority 1996, dated 1998)
